pIC50: −log10 of the molar value.
Assays:
[1] = target: T1, Recombinant STAT3 protein (STAT3(G127-I722)) (Homo sapiens, UniProt P40763); experiment: STAT3 Fluorescence Polarization (FP) Assay; format: binding; details: STAT3(G127-I722) 25 nM, probe 5-FAM-GpYLPQTV-NH2 2 nM, 45-minute incubation
T1 construct: Recombinant STAT3 protein (STAT3(G127-I722))
How it was run: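 STAT3(G127-I722), 25 nM, was mixed with 2 nM 5-FAM-GpYLPQTV-NH2 probe in HEPES pH 7.4 buffer with 1% DMSO and serially diluted compound. FP (mP) was read after 45 min at room temperature. IC50 came from nonlinear regression.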

[2] = target: T2, Recombinant STAT6 protein (STAT6(W123-T658)) (Homo sapiens, UniProt P42226); experiment: STAT6 Fluorescence Polarization (FP) Assay; format: binding; details: STAT6(W123-T658) 250 nM, probe 5-FAM-ApYKPFQDLI-NH2 2 nM, 45-minute incubation
T2 construct: Recombinant STAT6 protein (STAT6(W123-T658))
T2 sequence (P42226 123-658): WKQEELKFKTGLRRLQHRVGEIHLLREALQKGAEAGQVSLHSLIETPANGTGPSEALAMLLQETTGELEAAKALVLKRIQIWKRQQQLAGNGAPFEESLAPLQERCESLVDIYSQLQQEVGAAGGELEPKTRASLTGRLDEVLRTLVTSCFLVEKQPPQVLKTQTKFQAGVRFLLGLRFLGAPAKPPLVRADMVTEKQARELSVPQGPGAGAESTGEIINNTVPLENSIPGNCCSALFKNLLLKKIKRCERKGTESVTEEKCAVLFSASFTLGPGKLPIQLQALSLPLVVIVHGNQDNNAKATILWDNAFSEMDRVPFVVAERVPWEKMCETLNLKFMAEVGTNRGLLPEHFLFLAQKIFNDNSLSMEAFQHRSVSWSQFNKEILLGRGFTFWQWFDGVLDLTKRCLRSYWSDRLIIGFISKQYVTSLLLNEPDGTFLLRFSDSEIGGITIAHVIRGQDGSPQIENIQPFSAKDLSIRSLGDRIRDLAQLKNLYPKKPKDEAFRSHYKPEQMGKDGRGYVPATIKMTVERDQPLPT
How it was run: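 Displacement of a fluorescent phosphotyrosine peptide (5-FAM-ApYKPFQDLI-NH2, 2 nM) from STAT6(W123-T658) (250 nM), 1% DMSO, pH 7.4 HEPES buffer. After 45 min at room temperature, polarization (mP) was plotted versus log compound concentration and fitted by nonlinear regression to give IC50.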

T1 sequence (P40763 127-722): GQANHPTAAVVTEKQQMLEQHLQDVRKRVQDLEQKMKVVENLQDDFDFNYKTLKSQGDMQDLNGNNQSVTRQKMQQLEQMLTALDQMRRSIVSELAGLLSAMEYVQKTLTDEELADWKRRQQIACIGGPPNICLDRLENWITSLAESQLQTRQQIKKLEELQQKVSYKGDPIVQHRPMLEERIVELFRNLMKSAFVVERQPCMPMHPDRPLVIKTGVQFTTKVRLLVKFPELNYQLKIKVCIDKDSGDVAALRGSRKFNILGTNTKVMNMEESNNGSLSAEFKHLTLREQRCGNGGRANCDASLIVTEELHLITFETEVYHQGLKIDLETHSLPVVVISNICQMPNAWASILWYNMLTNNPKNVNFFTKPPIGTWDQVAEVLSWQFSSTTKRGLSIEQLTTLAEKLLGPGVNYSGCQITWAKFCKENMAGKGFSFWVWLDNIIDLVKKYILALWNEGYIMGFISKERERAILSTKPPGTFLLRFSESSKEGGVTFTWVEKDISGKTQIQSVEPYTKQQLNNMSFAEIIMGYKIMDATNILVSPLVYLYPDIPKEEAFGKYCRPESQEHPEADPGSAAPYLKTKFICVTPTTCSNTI

pIC50 [1] | pIC50 [2] | Compound
6.00 to 7.00 | 5.52 to 6.52 | C[C@H](Cc1ccccc1)C(=O)N1CC[C@H]2CC[C@@H](C(=O)N3CCCC3)N2C(=O)[C@@H](NC(=O)c2cc3cc(C(F)(F)P(=O)(O)O)ccc3s2)C1 [Compound 259, (difluoro(2-(((5S,8S,10aR)-3-((R)-2-methyl-3-phenylpropanoyl)-6-oxo-8-(pyrrolidine-1-carbonyl)decahydropyrrolo[1,2-a][1,5]diazocin-5-yl)carbamoyl)benzo[b]thiophen-5-yl)methyl)phosphonic acid]
6.00 to 7.00 | 5.52 to 6.52 | C[C@H](CC(=O)N1CC[C@H]2CC[C@@H](C(=O)N3CCCC3)N2C(=O)[C@@H](NC(=O)c2cc3cc(C(F)(F)P(=O)(O)O)ccc3s2)C1)c1ccccc1 [Compound 260, (difluoro(2-(((5S,8S,10aR)-6-oxo-3-((R)-3-phenylbutanoyl)-8-(pyrrolidine-1-carbonyl)decahydropyrrolo[1,2-a][1,5]diazocin-5-yl)carbamoyl)benzo[b]thiophen-5-yl)methyl)phosphonic acid]
6.00 to 7.00 | 5.52 to 6.52 | C[C@@H](CC(=O)N1CC[C@H]2CC[C@@H](C(=O)N3CCCC3)N2C(=O)[C@@H](NC(=O)c2cc3cc(C(F)(F)P(=O)(O)O)ccc3s2)C1)c1ccccc1 [Compound 261, (difluoro(2-(((5S,8S,10aR)-6-oxo-3-((S)-3-phenylbutanoyl)-8-(pyrrolidine-1-carbonyl)decahydropyrrolo[1,2-a][1,5]diazocin-5-yl)carbamoyl)benzo[b]thiophen-5-yl)methyl)phosphonic acid]
5.00 to 6.00 | 5.52 to 6.52 | COC(=O)N1CC[C@H]2CC[C@@H](C(=O)N3CCCC3)N2C(=O)[C@@H](NC(=O)c2cc3cc(C(F)(F)P(=O)(O)O)ccc3s2)C1 [Compound 262, (difluoro(2-(((5S,8S,10aR)-3-(methoxycarbonyl)-6-oxo-8-(pyrrolidine-1-carbonyl)decahydropyrrolo[1,2-a][1,5]diazocin-5-yl)carbamoyl)benzo[b]thiophen-5-yl)methyl)phosphonic acid]
≥ 7.00 | 4.52 to 5.52 | O=C(N[C@H]1CN(CC(F)F)CC[C@H]2CC[C@@H](C(=O)N3CC(C(=O)N4CCOCC4)C3)N2C1=O)c1cc2cc(C(F)(F)P(=O)(O)O)ccc2s1 [Compound 263, ((2-(((5S,8S,10aR)-3-(2,2-difluoroethyl)-8-(3-(morpholine-4-carbonyl)azetidine-1-carbonyl)-6-oxodecahydropyrrolo[1,2-a][1,5]diazocin-5-yl)carbamoyl)benzo[b]thiophen-5-yl)difluoromethyl)phosphonic acid]
5.00 to 6.00 | 5.52 to 6.52 | CN(CC(C)(C)C#N)C(=O)[C@@H]1CC[C@@H]2CCN(CC(F)F)C[C@H](NC(=O)c3cc4cc(C(F)(F)P(=O)(O)O)ccc4s3)C(=O)N21 [Compound 264, ((2-(((5S,8S,10aR)-8-((2-cyano-2-methylpropyl)(methyl)carbamoyl)-3-(2,2-difluoroethyl)-6-oxodecahydropyrrolo[1,2-a][1,5]diazocin-5-yl)carbamoyl)benzo[b]thiophen-5-yl)difluoromethyl)phosphonic acid]
5.00 to 6.00 | 5.52 to 6.52 | O=C(N[C@H]1CN(C(=O)Cc2ccccc2)CC[C@H]2CC[C@@H](C(=O)Nc3ccccc3-c3ccccc3)N2C1=O)c1cc2cc(C(F)(F)P(=O)(O)O)ccc2[nH]1 [Compound 265, ((2-(((5S,8S,10aR)-8-([1,1′-biphenyl]-2-ylcarbamoyl)-6-oxo-3-(2-phenylacetyl)decahydropyrrolo[1,2-a][1,5]diazocin-5-yl)carbamoyl)-1H-indol-5-yl)difluoromethyl)phosphonic acid]
6.00 to 7.00 | ≥ 6.52 | N#Cc1ccccc1-c1ccc(NC(=O)[C@@H]2CC[C@@H]3CCN(C(=O)Cc4ccccc4)C[C@H](NC(=O)c4cc5cc(C(F)(F)P(=O)(O)O)ccc5[nH]4)C(=O)N32)cc1 [Compound 266, ((2-(((5S,8S,10aR)-8-((2′-cyano-[1,1′-biphenyl]-4-yl)carbamoyl)-6-oxo-3-(2-phenylacetyl)decahydropyrrolo[1,2-a][1,5]diazocin-5-yl)carbamoyl)-1H-indol-5-yl)difluoromethyl)phosphonic acid]
5.00 to 6.00 | 5.52 to 6.52 | O=C(N[C@H]1CN(S(=O)(=O)CCc2ccccc2)CC[C@H]2CC[C@@H](C(=O)Nc3ccc(-c4ccccc4)cc3)N2C1=O)c1cc2cc(C(F)(F)P(=O)(O)O)ccc2s1 [Compound 268, ((2-(((5S,8S,10aR)-8-([1,1′-biphenyl]-4-ylcarbamoyl)-6-oxo-3-(phenethylsulfonyl)decahydropyrrolo[1,2-a][1,5]diazocin-5-yl)carbamoyl)benzo[b]thiophen-5-yl)difluoromethyl)phosphonic acid]
≥ 7.00 | 5.52 to 6.52 | CC(C)(CC(=O)N1CC[C@H]2CC[C@@H](C(=O)N3CC(c4cccnc4)C3)N2C(=O)[C@@H](NC(=O)c2cc3cc(C(F)(F)P(=O)(O)O)ccc3s2)C1)C1CCCCC1 [Compound 269, ((2-(((5S,8S,10aR)-3-(3-cyclohexyl-3-methylbutanoyl)-6-oxo-8-(3-(pyridin-3-yl)azetidine-1-carbonyl)decahydropyrrolo[1,2-a][1,5]diazocin-5-yl)carbamoyl)benzo[b]thiophen-5-yl)difluoromethyl)phosphonic acid]
5.00 to 6.00 | ≥ 6.52 | Cc1ccc2[nH]nc(C(=O)N3CC[C@H]4CC[C@@H](C(=O)N(C)C5CC5)N4C(=O)[C@@H](NC(=O)c4ccc5ccc(C(F)(F)P(=O)(O)O)cc5c4)C3)c2c1 [Compound 270, ((7-(((5S,8S,10aR)-8-(cyclopropyl(methyl)carbamoyl)-3-(5-methyl-1H-indazole-3-carbonyl)-6-oxodecahydropyrrolo[1,2-a][1,5]diazocin-5-yl)carbamoyl)naphthalen-2-yl)difluoromethyl)phosphonic acid]
5.00 to 6.00 | ≥ 6.52 | Cc1ccc2[nH]nc(C(=O)N3CC[C@H]4CC[C@@H](C(=O)N(C)C)N4C(=O)[C@@H](NC(=O)c4ccc5ccc(C(F)(F)P(=O)(O)O)cc5c4)C3)c2c1 [Compound 271, ((7-(((5S,8S,10aR)-8-(dimethylcarbamoyl)-3-(5-methyl-1H-indazole-3-carbonyl)-6-oxodecahydropyrrolo[1,2-a][1,5]diazocin-5-yl)carbamoyl)naphthalen-2-yl)difluoromethyl)phosphonic acid]
≥ 7.00 | 4.52 to 5.52 | CNC(=O)[C@@H]1CC[C@@H]2CCN(Cc3ccn4ccnc4c3)C[C@H](NC(=O)c3cc4cc(C(F)(F)P(=O)(O)O)ccc4s3)C(=O)N21 [Compound 272, (difluoro(2-(((5S,8S,10aR)-3-(imidazo[1,2-a]pyridin-7-ylmethyl)-8-(methylcarbamoyl)-6-oxodecahydropyrrolo[1,2-a][1,5]diazocin-5-yl)carbamoyl)benzo[b]thiophen-5-yl)methyl)phosphonic acid]
≥ 7.00 | 4.52 to 5.52 | O=C(N[C@H]1CN(Cc2ccn3ccnc3c2)CC[C@H]2CC[C@@H](C(=O)N3CC(c4cccnc4)C3)N2C1=O)c1cc2cc(C(F)(F)P(=O)(O)O)ccc2s1 [Compound 273, (difluoro(2-(((5S,8S,10aR)-3-(imidazo[1,2-a]pyridin-7-ylmethyl)-6-oxo-8-(3-(pyridin-3-yl)azetidine-1-carbonyl)decahydropyrrolo[1,2-a][1,5]diazocin-5-yl)carbamoyl)benzo[b]thiophen-5-yl)methyl)phosphonic acid]
≥ 7.00 | 4.52 to 5.52 | CN1CCN(c2ccccc2CN2CC[C@H]3CC[C@@H](C(=O)N4CC(c5cccnc5)C4)N3C(=O)[C@@H](NC(=O)c3cc4cc(C(F)(F)P(=O)(O)O)ccc4s3)C2)CC1 [Compound 274, (difluoro(2-(((5S,8S,10aR)-3-(2-(4-methylpiperazin-1-yl)benzyl)-6-oxo-8-(3-(pyridin-3-yl)azetidine-1-carbonyl)decahydropyrrolo[1,2-a][1,5]diazocin-5-yl)carbamoyl)benzo[b]thiophen-5-yl)methyl)phosphonic acid]
≥ 7.00 | 4.52 to 5.52 | COc1cc(CN2CC[C@H]3CC[C@@H](C(=O)N4CC(c5cccnc5)C4)N3C(=O)[C@@H](NC(=O)c3cc4cc(C(F)(F)P(=O)(O)O)ccc4s3)C2)ccc1-n1cnc(C)c1 [Compound 275, (difluoro(2-(((5S,8S,10aR)-3-(3-methoxy-4-(4-methyl-1H-imidazol-1-yl)benzyl)-6-oxo-8-(3-(pyridin-3-yl)azetidine-1-carbonyl)decahydropyrrolo[1,2-a][1,5]diazocin-5-yl)carbamoyl)benzo[b]thiophen-5-yl)methyl)phosphonic acid]

Reference: patent publication US20250179103A1, “6-OXODECAHYDROPYRROLO[1,2-A][1,5]DIAZOCINE AND 6-OXODECAHYDRO-4H-PYRROLO[2,1-D][1,5]THIAZOCINE DERIVATIVES AS STAT3 AND STAT6 MODULATORS FOR THE TREATMENT OF CANCER AND INFLAMMATORY CONDITIONS” (Recludix Pharma, Inc., priority 2022, published 2025)
